According to paper PMC5522078, “Discovery and characterization of small molecules targeting the DNA-binding ETS domain of ERG in prostate cancer” (Oncotarget, 2017):

Legend:
VCaP cells = assay: MTS cell viability assay, VCaP; type: cell-based, human; details: 72 h
Procedure: 3-(4,5-dimethylthiazol-2-yl)-5-(3-carboxymethoxyp henyl)-2-(4-sulfophenyl)-2H-tetrazolium, inner salt (MTS). Cells were seeded at a density of 3000 cells per well (except VCaP at 20,000/well) in 100 μL of appropriate media in 96 well culture dishes. Twenty four hours later, 100 μL of medium containing vehicle control or compounds. Each treatment was prepared in triplicate. After a 72 h treatment, cellular viability was assessed using CellTiter 96 ® Aqueous One Solution Cell Proliferation Assay reagent (Promega) according to the manufacturer's instructions. Values were normalized to the DMSO control.

ERG = molecular target: T1, ERG (Homo sapiens, UniProt P11308); assay: Dual reporter luciferase assay (pETS-luc) in VCaP cells; type: cell-based; details: 0.1-100 μM, 48 h treatment
T1 construct: VCaP (endogenous overexpression); endogenous in cells; host or cells: VCaP (whole cells for A2 and A17; nuclear extract for A16)
T1 sequence (P11308 33-479 limits assumed): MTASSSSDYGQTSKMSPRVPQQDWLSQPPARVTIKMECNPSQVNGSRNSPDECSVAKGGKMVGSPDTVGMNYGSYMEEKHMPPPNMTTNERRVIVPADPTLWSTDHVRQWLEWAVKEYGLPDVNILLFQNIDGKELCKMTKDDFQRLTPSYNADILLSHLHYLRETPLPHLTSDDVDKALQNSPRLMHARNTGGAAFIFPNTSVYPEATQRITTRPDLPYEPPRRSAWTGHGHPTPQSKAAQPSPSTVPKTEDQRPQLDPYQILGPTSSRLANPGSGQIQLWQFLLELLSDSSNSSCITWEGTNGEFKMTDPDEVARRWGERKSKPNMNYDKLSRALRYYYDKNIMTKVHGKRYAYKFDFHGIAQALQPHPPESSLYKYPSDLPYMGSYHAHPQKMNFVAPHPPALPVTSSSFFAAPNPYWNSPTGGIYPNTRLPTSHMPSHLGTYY
Procedure: All of the compounds selected from the virtual screening were tested in a luciferase-based ERG-responsive reporter assay, using two ERG-overexpressing cell lines, VCaP and PNT1B-ERG, previously developed in house. […] Data were normalized first to Renilla luciferase and then to the DMSO-media control on each plate, unless otherwise stated. Initial hit compounds were identified as those with an average normalized luciferase reading (firefly luciferase/Renilla luciferase readings) that is 60% or less of the average normalized luciferase reading of the DMSO-media control (i.e. 40% or more reduction of luciferase activity) at 10 μM. Representative example of raw Renilla luciferase readings presented in Supplementary Figure 9B. The luciferase assays were repeated for each lead compound under multiple concentrations (0.1 to 100 μM) to establish a dose-dependent response and an IC50 value. AR reporter assay was performed as previously described.

PNT1B-ERG spheroids = assay: 3D spheroid invasion assay; type: cell-based, human; details: compared to vehicle control
Procedure: 3D Spheroid BME Cell Invasion Assay (Trevigen) was performed as per manufacturer's instructions. […] Spheroids were then incubated at 37°C for 3 to 7 days, and photographed using Zeiss AxioObserver Z1 microscope in each well on the day of invasion mix addition and every two days following. Spheroids were retreated with 50 μL of vehicle control or compound after 72 hr.

PNT1B-ERG or VCaP cells = assay: Zebrafish yolk sac dissemination (xenograft metastasis) assay; type: in vivo; details: 1 and 10 μM in water; 5 days; untreated 65 to 70%
Procedure: Research was carried in accordance with protocols compliant to the Canadian Council on Animal Care and with the approval of the Animal Care Committee at the University of British Columbia. The wildtype zebrafish strain was maintained in aquaria according to standard protocols. Embryos were generated by natural pair-wise matings and raised at 28.5°C on a 14 h light/10 h dark cycle in a 100 mm^2 petri dish containing aquarium water. Phenylthiourea (0.2 mM PTU, Sigma) was added to the embryos at 10 h post-fertilization (hpf) to prevent pigment formation. Yolk sac dissemination assay. PCa cell lines were fluorescently labelled the day before microinjection with 1.5 μM of CellTracker CM-Dil dye (Life Technologies) as per manufacturer's instructions. Wild-type embryos were dechorionated at 2 dpf. Following anaesthetization with tricane, approximately 50–70 cancer cells were microinjected into the yolk sac. Embryos were then transferred to 100 mm^2 plates that contained aquaria water with added PTU and VPC-18005, YK-4-279 or DMSO control. Embryos were visually assessed for presence of xenograph. […] Embryos were kept at 35°C for the duration of the experiment. Approximately, 50 fish were injected per cell line and metastasis was determined on Day 4 and 5 by observation using the Zeiss Axio Observer microscope (5X objective) controlled with Zen 2012 software. […]

PNT1B-ERG cells = assay: Real time growth assay (Incucyte confluence); type: cell-based, human; details: 1, 5 or 15 µM; 168 h
Procedure: www.impactjournals.com/oncotarget/ Oncotarget Supplementary Materials
Discovery and characterization of small molecules targeting the DNA-binding ETS domain of ERG in prostate cancer […]
samples where less saturation of MS data is expected. This […]
and gives reasonable estimates when the use of MS […]
sulfoxide (DMSO) were diluted 1,000× into methanol
The (Gibco), then underwent APC BrdU Flow Kit protocol
Cells were analysed on a FACSCanto™
Data was analyzed using FlowJo
Eppendorf tubes. Saturated PBS samples were further software (TreeStar, USA). Biological replicates were diluted with an equal volume of PBS. Aliquots of these analysed statistically by Two-Way ANOVA. […]
the dark. Aliquots taken at later time points were vortex mixed for 1 h prior to sampling. MeOH and diluted PBS Proliferation/cell viability assay […]
were extracted with two volumes acetonitrile (ACN) and centrifuged at 20,000 g for 5 min.
After 24 h, plates were treated with vehicle control, […]
and a Quattro Premier (Waters).
2points/sec were collected with the PDA. The sampler expression datasets from PCa patients […]
represent the mean ± SEM of triplicate experiments. […]
post hoc test. […] The G0–G1 phase
Growth assay of PNT1B-ERG cells

| SMILES | Effect on cell viability (MTS), VCaP (VCaP cells; 0.2–25 μM) | IC50 (ERG) [µM] | Rate of spheroid invasion between day 2 and 6 (PNT1B-ERG spheroids) | Percentage of fish with PNT1B-ERG or VCaP dissemination (PNT1B-ERG or VCaP cells) | Effect on proliferation / cell growth (real time cell analysis) (PNT1B-ERG cells) | Doses with inhibition of cell viability (MTS), VCaP (VCaP cells) [µM] |
| --- | --- | --- | --- | --- | --- | --- |
| CC(C)c1ccc(C=N/N=C2\NC(=O)[C@@H](CC(=O)O)S2)cc1 (stereo in doubt) [VPC-18005, 2-((Z)-2-(((Z)-4-isopropylbenzylidene)hydrazono)-4-oxothiazolidin-5-yl)acetic acid] | did not decrease viability | 6 | significantly reduced | 20–30% | did not suppress proliferation or induce cell death | – |
| COc1ccc(C(=O)CC2(O)C(=O)Nc3c(Cl)ccc(Cl)c32)cc1 (stereo not shown) [YK-4-279, reference compound] | – | 16 | significantly reduced | 40–60% | dose-dependent effect | ≥ 5 |
